# Assays:
# [1] = Elution of paclitaxel coatings in aqueous Heptakis-(2,6-di-O-methyl)-β-cyclodextrin (HCD); assay type: physicochemical; settings: 0.5% w/w aqueous HCD, 25° C.; within about 1 hour
# Excerpt: A preferred first elution medium is an aqueous solution comprising 0.1% to about 10% of a cyclodextrin. In one aspect, an elution profile may be obtained by contacting a coated medical device comprising a taxane therapeutic agent with an elution medium comprising a cyclodextrin. A cyclodextrin is a cyclic oligosaccharide formed from covalently-linked glucopyranose rings defining an internal cavity. The diameter of the internal axial cavity of cyclodextrins increases with the number of glucopyranose units in the ring. The size of the glucopyranose ring can be selected to provide an axial cavity selected to match the molecular dimensions of a taxane therapeutic agent. The cyclodextrin is preferably a modified beta-cyclodextrin, such as Heptakis-(2,6-di-O-methyl)-β-cyclodextrin (HCD). Suitable cyclodedtrin molecules include other β-cyclodextrin molecules, as well as γ-cyclodextrin structures.
# Preferably, the cyclodextrin elution medium is formulated to provide distinguishable elution rates for different coating configurations, providing different elution profiles for different solid forms of a taxane therapeutic agent in the coating. […] For example, the elution medium may contact a medical device coating in a continuous flow configuration, or in a batch testing configuration.
# Taxane therapeutic agents typically have different elution profiles in different elution media.
# [2] = Elution of paclitaxel coatings in 0.3% sodium dodecyl sulfate (SDS); assay type: physicochemical; settings: 0.3% SDS, 25° C.; FIGS. 7A-7B
# Excerpt: Taxane therapeutic agents can have different elution profiles in different elution media. Another suitable elution medium for taxane therapeutic agent is sodium dodecyl sulfate (SDS).
# [3] = for first order rate constants k1, k2 used for the dissolution formula: restated
# Excerpt: The rate of dissolution of the taxane therapeutic agent can vary based on the elution medium being used and the solid form of the taxane therapeutic agent before dissolution. An elution profile can be obtained by any suitable method that allows for measurement of the release of the taxane therapeutic agent from the coating in a manner that can be measured with a desired level of accuracy and precision. In one embodiment, the elution profile of the release of a taxane therapeutic agent is obtained by contacting the medical device with a suitable elution medium. The elution medium can be formulated to simulate conditions present at a particular point of treatment within a body vessel. For example, an elution medium comprising porcine serum can be used to simulate implantation within a blood vessel. The release of taxane therapeutic agent from the medical device can be measured by any suitable spectrographic method, such as measurement of a UV absorption spectrum of the test fluid after contacting the medical device. Typically, the intensity of absorption at characteristic UV absorption peak, such as about 227 nm, can be correlated to the presence and amount of a taxane therapeutic agent in a sample. The amount of taxane therapeutic agent on the medical device can be determined by contacting the medical device with a suitable elution medium and detecting the amount of taxane therapeutic agent released from the medical device into the elution medium.
# Preferably, the coated medical device can be contacted with a modified porcine serum elution medium at a constant flow rate of 16 mL/min for a desired period of time (e.g., 6-24 hours) sufficient to elute the aPTX present on the stent. The percentage of the taxane therapeutic agent dissolved can be measured as a function of time by monitoring the optical density of the first elution medium at 227 nm after contacting the coated stent, as described above. The modified porcine serum elution medium can be prepared by adding 0.104 mL of a 6.0 g/L Heparin solution to porcine serum at 37° C. and adjusting the pH to 5.6+/−0.3 using a 20% v/v aqueous solution of acetic acid. The elution rate profile of the taxane therapeutic agent can be measured for any desired period, and correlated to the amount of aPTX in the coating. Subsequently, the coated medical device is contacted with a second elution medium comprising 0.3% sodium dodecyl sulfate (SDS) at 25° C. a constant flow rate of 16 mL/min for a suitable time period to elute the dPTX present in the coating. The elution rate profile of the taxane therapeutic agent can be measured for any desired period, and correlated to the amount of aPTX (e.g., by elution in porcine serum) and dPTX (e.g., by subsequent elution in SDS) in the coating.
percentage of paclitaxel dissolved/released [1],rate of elution compared with dihydrate paclitaxel [2],"time within which substantially all of the paclitaxel eluted ([3]; continuous flow of porcine serum, FIG. 14, Example 6)","half life of elution ([3]; pig, serum)","percentage of the coating dissolved ([3]; porcine serum, 37° C., single-layer coating on vascular stent, within about 6.5 hours (400 minutes)) [%]","first order rate constants k1, k2 used for the dissolution formula ([3]; porcine serum) [min⁻¹]",first order rate constant of elution ([3]; porcine serum (25° C.) as printed),"percentage of the coating eluted ([3]; porcine serum, 37° C., single-layer coating on vascular stent, after about 24 hours)",Compound
about 80%,more rapid,less than 5 hours,about 30 minutes,100,0.0244,,,"CC(=O)O[C@H]1C(=O)[C@@]2(C)[C@H]([C@H](OC(=O)c3ccccc3)[C@]3(O)C[C@H](OC(=O)[C@H](O)[C@@H](NC(=O)c4ccccc4)c4ccccc4)C(C)=C1C3(C)C)[C@]1(OC(C)=O)CO[C@@H]1C[C@@H]2O [amorphous paclitaxel, paclitaxel]"
less than 20%,,,,,0.0003,about 0.0003 min^−1,less than 40%,"CC(=O)O[C@H]1C(=O)[C@@]2(C)[C@H]([C@H](OC(=O)c3ccccc3)[C@]3(O)C[C@H](OC(=O)[C@H](O)[C@@H](NC(=O)c4ccccc4)c4ccccc4)C(C)=C1C3(C)C)[C@]1(OC(C)=O)CO[C@@H]1C[C@@H]2O [dihydrate paclitaxel, paclitaxel]"

# From patent US7875284B2, “Methods of manufacturing and modifying taxane coatings for implantable medical devices” (Cook Incorporated, priority 2006, dated 2011)
